The source of these data is article PMC10728895, “Stapled Phd Peptides Inhibit Doc Toxin Induced Growth Arrest in Salmonella” (ACS Chemical Biology, 2023).

Molecules are shown by their SMILES. “Also recorded” adds a separate entry of the source. Positions of bridges follow the written chain, without caps; N, C: chain ends. Non-standard residues stand in square brackets, D forms with d. Residues, ends and D or L forms follow the SMILES beside them. *: point of attachment. 5FAM = O=C1OC2(c3ccc(O)cc3Oc3cc(O)ccc32)c2ccc(C(=O)*)cc21; S5 = C=CCCC[C@](C)(N)C(=O)O; Nle = CCCC[C@H](N)C(=O)O

For series [1], the system named is S. typhimurium (14028s) glmS::mCherry strain. Briefly: Peptide uptake in S. typhimurium by flow cytometry. The note with it: RT. In kind it is cell-based. On the procedure:
S. typhimurium (14028s) glmS::mCherry strain was grown overnight in LB medium containing 1% glucose. The culture was then diluted to an OD600 of approximately 0.1 into 200 μL of fresh M9 minimal medium supplemented with 0.5% arabinose containing 2 or 10 μM of the indicated 5(6)-carboxyfluorescein-labeled Phd^52–73 peptide. The samples were incubated on the bench at RT for 4 or 22 h with no access to light. Bacteria were then spun down, washed with 1 mL of PBS solution, and finally resuspended in 1 mL of PBS solution for flow cytometry analysis (BD LSR II). Constitutively expressed mCherry was used to discriminate bacteria from the debris in each sample.
(Flow cytometry measures light scatter and fluorescence of single cells or particles in a stream.)

The subject of series [2] is E. coli MG1655. Briefly: Peptide uptake in E. coli by flow cytometry. Type of series: cell-based. The note with it: 5 μM FAM-labeled peptide in PBS, 2 h, 37 °C, E. coli MG1655, trypan blue quench, mean ± SD. On the procedure: E. coli MG1655 strain was grown in LB medium to an OD600 of around 0.5. Approximately 10^7 cells were washed once with PBS and subsequently incubated with 5 μM of the indicated 5(6)-carboxyfluorescein-labeled Phd^52–73 peptide in PBS (500 μL) for 2 h at 37 °C. Bacteria were washed twice with PBS, and trypan blue (1 mg mL^–1) in PBS was added and incubated for 10 min at RT. Bacteria were washed an additional time with PBS and resuspended in 2 mL of PBS. Flow cytometry analysis was performed using a ThermoFisher Attune NxT and a blue laser (BL1) for fluorescein excitation.

Series [3] relates to S. typhimurium (14028s) Δphd-doc::Km strain expressing DocSTm (pBAD33::doc). Briefly: Growth rescue experiments in DocSTm-expressing S. typhimurium. Type of series: cell-based. The settings on record: three independent experiments; for Rescue from DocSTm-induced growth inhibition (OD600): 10 μM synthetic peptide, 24 h, 37 °C, start OD600 0.1, M9 minimal medium with 0.5% arabinose. On the procedure: S. typhimurium (14028s) Δphd-doc::Km strains carrying pCA24N (empty vector or encoding for the Phd^52–73 variant) and pBAD33::doc plasmids were grown overnight in LB medium containing 1% glucose and supplemented with 100 μg/mL carbenicillin and 34 μg/mL chloramphenicol antibiotics. Cultures were then diluted to an OD600 of approximately 0.1 into 200 μL of fresh M9 minimal medium supplemented with 0.5% arabinose, 100 μg/mL carbenicillin, 34 μg/mL chloramphenicol, and containing 2 or 10 μM of the indicated synthetic Phd^52–73 peptide. Untreated DocSTm-expressing S. typhimurium as well as S. typhimurium coexpressing Doc and Phd^52–73 peptides were included as controls in each experiment. After 2 h of incubation at RT, samples were transferred to a flat-bottom 96-well plate (Greiner), and OD600 was monitored every 15 min for 24 h at 37 °C using an Infinite M Plex plate reader (Tecan LifeScience) and orbital shaking with 1 mm amplitude. Peptides were tested in three independent experiments.

Series [4] deals with DocSTm toxin. The note with it: DocSTm 5 μM, peptide 50 μM; for Average Tm of DocSTm in the presence of peptide: pH 8.0, average ± SD, replicates 3-48 (Table S3). In outline:
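Thermal shift with 5 μM recombinant Doc toxin and 50 μM Phd peptides in 20 mM K2HPO4, 50 mM (NH4)2SO4, pH 8.0, SYPRO Orange 3×, ramped 25–95 °C. Tm from Boltzmann fit; ΔTm is peptide-bound minus free DocSTm Tm, triplicates.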

Series [5] relates to DocSTm (phosphorylation of EF-TuSTm). The experiment in a line: Dot blot EF-Tu phosphorylation assay. In kind it is biochemical, Salmonella Typhimurium. The settings on record: DocSTm 1 μM, EF-TuSTm 3 μM, peptide 10 μM to 5 nM (3-fold dilutions), 16 h RT, dot blot anti-phosphothreonine; compared at three times the DocSTm concentration; two independent experiments. Here is the method: Samples were prepared in assay buffer [50 mM HEPES (pH 7.5), 25 mM (NH4)2SO4, 2 mM TCEP, 2 mM MgCl2, and 1 mM ATP] with a final concentration of recombinant Doc at 1 μM, recombinant EF-Tu at 3 μM, and varying concentrations of synthetic Phd peptides (final concentrations: 10 μM to 5 nM). EF-Tu (3 μM) in assay buffer was used as a negative control (no Doc and Phd peptide), while EF-Tu (3 μM) with Doc (1 μM) in assay buffer was used as a positive control (no Doc inhibitor). The final sample volume was 10 μL. Samples were incubated for 16 h at RT and subsequently spotted on a nitrocellulose membrane. Phosphorylated EF-Tu was detected by immunodecoration using a rabbit monoclonal antiphosphothreonine antibody (Abcam, ab218195) at 1:2000 dilution (1 h at 4 °C), followed by incubation with a goat antirabbit IgG (H + L) HRP conjugate antibody (Advansta) at 1:10,000 dilution (1 h at RT). Chemiluminescence was developed using the HRP Luminata Kit (Merck, WBLUR0100) and captured with an ImageQuant LAS4000 Western blot imaging system (GE HealthCare). Each peptide was tested in two independent experiments.

With `CCCC[C@H](NC(=O)[C@H](Cc1c[nH]c2ccccc12)NC(=O)c1ccc2c(c1)C(=O)OC21c2ccc(O)cc2Oc2cc(O)ccc21)C(=O)N[C@@H](CCCNC(=N)N)C(=O)N[C@@H](CC(=O)O)C(=O)N[C@@H](CCC(=O)O)C(=O)N[C@@H](Cc1ccccc1)C(=O)N[C@@H](C)C(=O)N[C@@H](C)C(=O)N[C@H](C(=O)N[C@@H](CCCC)C(=O)N[C@@H](CCCNC(=N)N)C(=O)N[C@H](C(=O)N[C@@H](Cc1c[nH]cn1)C(=O)NCC(=O)N[C@@]1(C)CCCC=CCCC[C@@](C)(C(=O)N[C@@H](CC(C)C)C(=O)N[C@@H](C)C(=O)N[C@@H](CC(=O)O)C(=O)N[C@@H](CCCCN)C(=O)O)NC(=O)[C@H](CCCNC(=N)N)NC(=O)[C@H](CC(C)C)NC(=O)[C@H](CCC(=O)O)NC1=O)C(C)C)[C@@H](C)CC` [FAM-18] (5FAM-W[Nle]RDEFAAI[Nle]RVHG[S5]ELR[S5]LADK-OH; staple 15-19), in series [1] (10 μM FAM-labeled peptide, 4 or 22 h, M9 minimal medium), the “Uptake into S. typhimurium (penetration efficiency)” value is 9–30%. Also, the “Cellular uptake into E. coli (penetration efficiency)” value in series [2] is 7–14%.

Regarding `CCCC[C@H](NC(=O)[C@H](Cc1c[nH]c2ccccc12)NC(C)=O)C(=O)N[C@@H](CC(=O)O)C(=O)N[C@@H](CC(=O)O)C(=O)N[C@@H](CCC(=O)O)C(=O)N[C@@H](Cc1ccccc1)C(=O)N[C@@H](C)C(=O)N[C@@H](C)C(=O)N[C@H](C(=O)N[C@@H](CCCC)C(=O)N[C@@H](C)C(=O)N[C@H](C(=O)N[C@@H](Cc1c[nH]cn1)C(=O)NCC(=O)N[C@@H](CC(N)=O)C(=O)N[C@@H](CCC(=O)O)C(=O)N[C@@H](CC(C)C)C(=O)N[C@@H](CCCNC(=N)N)C(=O)N[C@@H](CCC(=O)O)C(=O)N[C@@H](CC(C)C)C(=O)N[C@@H](C)C(=O)N[C@@H](CC(=O)O)C(=O)N[C@@H](CCCCN)C(=O)O)C(C)C)[C@@H](C)CC` [Peptide 1] (Ac-W[Nle]DDEFAAI[Nle]AVHGNELRELADK-OH), the “Rescue from DocSTm-induced growth inhibition (OD600)” value in series [3] is “consistent and full rescue; also recorded: growth rescue was also observed”. The “ΔTm (thermal shift) of DocSTm in the presence of peptide” value in series [4] (SYPRO Orange 3×, 20 mM K2HPO4, 50 mM (NH4)2SO4, pH 8.0, average Tm with peptide minus average Tm of free DocSTm, mean ± SD) stood at 28.8 ± 2.7 °C. The “Average Tm of DocSTm in the presence of peptide” value in series [4] came out at 71.0 ± 1.1 °C. In addition, the “Inhibition of EF-TuSTm phosphorylation by DocSTm (concentration needed for full inhibition)” value in series [5] is on record as “fully inhibited”.

Consider `CCCC[C@H](NC(=O)[C@H](Cc1c[nH]c2ccccc12)NC(C)=O)C(=O)N[C@@H](CC(N)=O)C(=O)N[C@@H](CC(N)=O)C(=O)N[C@@H](CCC(=O)O)C(=O)N[C@@H](Cc1ccccc1)C(=O)N[C@@]1(C)CCCC=CCCC[C@@](C)(C(=O)N[C@H](C(=O)N[C@@H](Cc2c[nH]cn2)C(=O)NCC(=O)N[C@@H](CCCNC(=N)N)C(=O)N[C@@H](CCC(N)=O)C(=O)N[C@@H](CC(C)C)C(=O)N[C@@H](CCCNC(=N)N)C(=O)N[C@@H](CCCNC(=N)N)C(=O)N[C@@H](CC(C)C)C(=O)N[C@@H](C)C(=O)N[C@@H](CCCNC(=N)N)C(=O)N[C@@H](CCCCN)C(=O)O)C(C)C)NC(=O)[C@H](CCCC)NC(=O)[C@H]([C@@H](C)CC)NC(=O)[C@H](C)NC1=O` [Peptide 36] (Ac-W[Nle]NNEF[S5]AI[Nle][S5]VHGRQLRRLARK-OH; staple 7-11), for which the Growth rescue kinetics result in series [3] (10 μM peptide, growth curves over 24 h at 37 °C) is reported as “faster growth rescue than peptide 1; also recorded: more rapidly than 1; also recorded: faster rate than the unmodified peptide 1”. Further, in series [3], the “Rescue from DocSTm-induced growth inhibition (OD600)” value was “reproducibly rescued DocSTm-induced growth arrest; also recorded: growth rescue was also observed; also recorded: fully rescued”. For the same molecule, the “Average Tm of DocSTm in the presence of peptide” value in series [4] turned out to be 61.3 ± 1.1 °C.

For `CCCC[C@H](NC(=O)[C@H](Cc1c[nH]c2ccccc12)NC(=O)c1ccc2c(c1)C(=O)OC21c2ccc(O)cc2Oc2cc(O)ccc21)C(=O)N[C@@H](CC(=O)O)C(=O)N[C@@H](CC(=O)O)C(=O)N[C@@H](CCC(=O)O)C(=O)N[C@@H](Cc1ccccc1)C(=O)N[C@@H](C)C(=O)N[C@@H](C)C(=O)N[C@H](C(=O)N[C@@H](CCCC)C(=O)N[C@@H](C)C(=O)N[C@H](C(=O)N[C@@H](Cc1c[nH]cn1)C(=O)NCC(=O)N[C@@H](CC(N)=O)C(=O)N[C@@H](CCC(=O)O)C(=O)N[C@@H](CC(C)C)C(=O)N[C@@H](CCCNC(=N)N)C(=O)N[C@@H](CCC(=O)O)C(=O)N[C@@H](CC(C)C)C(=O)N[C@@H](C)C(=O)N[C@@H](CC(=O)O)C(=O)N[C@@H](CCCCN)C(=O)O)C(C)C)[C@@H](C)CC` [FAM-1] (5FAM-W[Nle]DDEFAAI[Nle]AVHGNELRELADK-OH), the “Uptake into S. typhimurium (% fluorescent cells)” value in series [1] (10 μM FAM-labeled peptide, 22 h) was “less than 1%”. The “Uptake into S. typhimurium, in words” value in series [1] (2 and 10 μM FAM-labeled peptide, 4 and 22 h) was “very low uptake”. The “Cellular uptake into E. coli (penetration efficiency)” value in series [2] is on record as “extremely low uptake”.
